# Source: patent EP4582418A1, “CRYSTALLINE FORM OF QUINOLINE DERIVATIVE INHIBITOR, PREPARATION METHOD THEREFOR AND USE THEREOF” (TransThera Sciences (Nanjing), Inc., priority 2022, dated 2024)
# Assays:
# [1] = Stability test under influencing factors (high temperature, high humidity, illumination); format: physicochemical; details: for changes in the appearance and purity: left to stand under conditions of the influencing factors for 30 days
# Procedure: Test substances: the crystal forms I, II, III, and IV of the methanesulfonate of the compound of formula (I) of the present disclosure.
# Methodology: Appropriate amounts of samples of the crystal forms I, II, III, and IV of the methanesulfonate of the compound of formula (I) were separately left to stand open under the conditions of a high temperature (60 °C), a high humidity (RH 92.5%), and illumination (4500±500 Lux); sampling was performed on days 5, 10, and 30 to investigate changes in the appearance, purity, and crystal form of the samples.
# [2] = Solubility in FaSSIF (pH 6.5) and FeSSIF (pH 5.0) buffer solutions; format: physicochemical; details: for 24-hour solubility in buffer solutions with different pH values pH6.5: FaSSIF (pH 6.5); for 24-hour solubility in buffer solutions with different pH values pH6.5 / 24-hour solubility in buffer solutions with different pH values pH5.0: 37 °C, shaken 24 h; for 24-hour solubility in buffer solutions with different pH values pH5.0: FeSSIF (pH 5.0); for solubility compared with the compound of formula (I): test solutions at pH 5.0 and pH 6.5
# Procedure: Test substances: the crystal forms I, II, III, and IV of the methanesulfonate of the compound of formula (I).
# • 1) 0.42 g of NaOH, 3.44 g of anhydrous NaH2PO4, and 6.19 g of NaCl were dissolved in about 0.9 L of pure water; • 2) the pH was adjusted to 6.5 using 1 N NaOH or 1 N HCl, and the buffer solution was supplemented to the volume of 1 L with pure water at room temperature; • 3) 2.24 g of FaSSIF powder was added to about 0.5 L of the buffer solution, and the mixture was stirred until the powder was completely dissolved; the resulting solution was supplemented to the volume of 1 L with the buffer solution at room temperature, and after being left to stand for 2 h, it was ready for use.
# • 1) 4.04 g of NaOH, 8.65 g of glacial acetic acid, and 11.87 g of NaCl were dissolved in about 0.9 L of pure water; • 2) the pH was adjusted to 5.0 using 1 N NaOH or 1 N HCl, and the buffer solution was supplemented to the volume of 1 L with pure water at room temperature; • 3) 11.2 g of FeSSIF powder was added to about 0.5 L of the buffer solution, and the mixture was stirred until the powder was completely dissolved; the resulting solution was supplemented to the volume of 1 L with the buffer solution at room temperature, and after being left to stand for 2 h, it was ready for use.
# An appropriate amount of each test substance was placed into separate 10 mL PE tubes, and FaSSIF (pH 6.5) buffer solution and FeSSIF (pH 5.0) buffer solution, each 10 mL, were added into the tubes, respectively. The tubes were then placed in a constant temperature water bath shaker and shaken at 37 °C for 24 h. After 24 h, samples were collected and centrifuged. The supernatants were diluted, and the solubility of the supernatants was measured.
# [3] = PK evaluation of crystal forms in rats; format: in vivo; details: SD rats, PO 60 mg/kg
# Procedure: The experimental crystal forms I and II of the methanesulfonate of the compound of formula (I) were each prepared into a suspension solution with 0.5% HPMC. The compound solutions were intragastrically administered to SD rats at a dose of 60 mg/kg. Blood samples were collected at time points of 15 min, 30 min, 1 h, 2 h, 4 h, 6 h, 8 h, 24 h, 48 h, 72 h, and 96 h after administration.
# The animals were fixed, with tails warmed in a water bath 10 min before each sampling time point. About 100 µL of blood was collected via the tail vein, and the blood samples were collected in anticoagulation tubes containing EDTA-K2. The blood samples were then centrifuged at 8,000 rpm for 6 min at 4 °C to give plasma samples. The plasma samples were prepared within 30 min after blood collection. The plasma samples were stored in a refrigerator at -80 °C before the test.
# The sample to be tested was taken out from the -80 °C refrigerator, naturally thawed at room temperature, and vortexed for 5 min. 20 µL of plasma sample was precisely pipetted to a 1.5 mL centrifuge tube, and 200 µL of internal standard working solution (a solution of tolbutamide in methanol, 100 ng/mL) was added. The resulting mixture was thoroughly mixed, vortexed for 5 min, and centrifuged at 12,000 rpm for 5 min. 50 µL of supernatant was precisely pipetted to a 96-well plate pre-loaded with 150 µL of water per well, and the resulting mixture was vortexed for 5 min and then used for LC-MS/MS analysis.
# The concentrations of the test samples were calculated by Analyst 1.6.3 from AB Sciex. Parameters such as mean, standard deviation, and coefficient of variation (excluding those output directly by Analyst 1.6.3) were calculated by Microsoft Excel. PK parameters were calculated by Pharsight Phoenix 6.1 software NCA (Tmax was in median).
# [4] = Left to stand open at 60 °C for 5 days
# [5] = Left to stand open at 60 °C for 10 days
# [6] = Left to stand open at 60 °C for 30 days
# [7] = Left to stand open at RH 92.5% for 5 days
# [8] = Left to stand open at RH 92.5% for 10 days
# [9] = Left to stand open at RH 92.5% for 30 days
# [10] = Left to stand open under illumination (4500±500 Lux) for 5 days
# [11] = Left to stand open under illumination (4500±500 Lux) for 10 days
# [12] = Left to stand open under illumination (4500±500 Lux) for 30 days
smiles,measurement,setting,value
"COc1cc2nccc(Oc3ccc(NC(=O)c4nn(C(C)C)cc(-c5ccc(F)cc5)c4=O)nc3)c2cc1OC [Crystal form III, N-(5-((6,7-dimethoxyquinolin-4-yl)oxy)pyridin-2-yl)-5-(4-fluorophenyl)-1-isopropyl-4-oxo-1,4-dihydropyridazine-3-carboxamide]",Appearance,[1]; 0 days,White or off-white solid
same,Purity,[1]; 0 days,99.90%
same,Appearance,[1]; [4],White or off-white solid
same,Purity,[1]; [4],99.90%
same,Appearance,[1]; [5],White or off-white solid
same,Purity,[1]; [5],99.90%
same,Appearance,[1]; [6],White or off-white solid
same,Purity,[1]; [6],99.89%
same,Appearance,[1]; [7],White or off-white solid
same,Purity,[1]; [7],99.90%
same,Appearance,[1]; [8],White or off-white solid
same,Purity,[1]; [8],99.90%
same,Appearance,[1]; [9],White or off-white solid
same,Purity,[1]; [9],99.90%
same,Appearance,[1]; [10],White or off-white solid
same,Purity,[1]; [10],99.90%
same,Appearance,[1]; [11],White or off-white solid
same,Purity,[1]; [11],99.91%
same,Appearance,[1]; [12],White or off-white solid
same,Purity,[1]; [12],99.91%
same,changes in the appearance and purity,[1],no significant changes
same,24-hour solubility in buffer solutions with different pH values pH6.5,[2],0.023 mg/mL
same,24-hour solubility in buffer solutions with different pH values pH5.0,[2],0.025 mg/mL
same,solubility compared with the compound of formula (I),[2],significantly improved
"COc1cc2nccc(Oc3ccc(NC(=O)c4nn(C(C)C)cc(-c5ccc(F)cc5)c4=O)nc3)c2cc1OC [Crystal form IV, N-(5-((6,7-dimethoxyquinolin-4-yl)oxy)pyridin-2-yl)-5-(4-fluorophenyl)-1-isopropyl-4-oxo-1,4-dihydropyridazine-3-carboxamide]",Appearance,[1]; 0 days,White or off-white solid
same,Purity,[1]; 0 days,99.91%
same,Appearance,[1]; [4],White or off-white solid
same,Purity,[1]; [4],99.91%
same,Appearance,[1]; [5],White or off-white solid
same,Purity,[1]; [5],99.91%
same,Appearance,[1]; [6],White or off-white solid
same,Purity,[1]; [6],99.87%
same,Appearance,[1]; [7],White or off-white solid
same,Purity,[1]; [7],99.92%
same,Appearance,[1]; [8],White or off-white solid
same,Purity,[1]; [8],99.92%
same,Appearance,[1]; [9],White or off-white solid
same,Purity,[1]; [9],99.92%
same,Appearance,[1]; [10],White or off-white solid
same,Purity,[1]; [10],99.91%
same,Appearance,[1]; [11],White or off-white solid
same,Purity,[1]; [11],99.91%
same,Appearance,[1]; [12],White or off-white solid
same,Purity,[1]; [12],99.88%
same,changes in the appearance and purity,[1],no significant changes
same,24-hour solubility in buffer solutions with different pH values pH6.5,[2],0.023 mg/mL
same,24-hour solubility in buffer solutions with different pH values pH5.0,[2],0.31 mg/mL
same,solubility compared with the compound of formula (I),[2],significantly improved
"COc1cc2nccc(Oc3ccc(NC(=O)c4nn(C(C)C)cc(-c5ccc(F)cc5)c4=O)nc3)c2cc1OC [Crystal form II, N-(5-((6,7-dimethoxyquinolin-4-yl)oxy)pyridin-2-yl)-5-(4-fluorophenyl)-1-isopropyl-4-oxo-1,4-dihydropyridazine-3-carboxamide]",AUClast,"[3]; 0-96 h, n = 3",3054.395 µg·h/mL
same,Cmax,[3]; n = 3,58.933 µg/mL
same,λ_z,"[3]; n = 3, suspension in 0.5% HPMC",0.026 h⁻¹
same,Tmax,"[3]; median, n = 3",6.00 h
same,tz1/2,"[3]; terminal half-life, n = 3",27.0 h
same,Appearance,[1]; 0 days,White or off-white solid
same,Purity,[1]; 0 days,99.74%
same,Appearance,[1]; [4],White or off-white solid
same,Purity,[1]; [4],99.74%
same,Appearance,[1]; [5],White or off-white solid
same,Purity,[1]; [5],99.73%
same,Appearance,[1]; [6],White or off-white solid
same,Purity,[1]; [6],99.72%
same,Appearance,[1]; [7],White or off-white solid
same,Purity,[1]; [7],99.74%
same,Appearance,[1]; [8],White or off-white solid
same,Purity,[1]; [8],99.74%
same,Appearance,[1]; [9],White or off-white solid
same,Purity,[1]; [9],99.74%
same,Appearance,[1]; [10],White or off-white solid
same,Purity,[1]; [10],99.75%
same,Appearance,[1]; [11],White or off-white solid
same,Purity,[1]; [11],99.74%
same,Appearance,[1]; [12],White or off-white solid
same,Purity,[1]; [12],99.75%
same,changes in the appearance and purity,[1],no significant changes
same,24-hour solubility in buffer solutions with different pH values pH6.5,[2],0.023 mg/mL
same,24-hour solubility in buffer solutions with different pH values pH5.0,[2],0.31 mg/mL
same,solubility compared with the compound of formula (I),[2],significantly improved
"COc1cc2nccc(Oc3ccc(NC(=O)c4nn(C(C)C)cc(-c5ccc(F)cc5)c4=O)nc3)c2cc1OC [Compound of formula (I), N-(5-((6,7-dimethoxyquinolin-4-yl)oxy)pyridin-2-yl)-5-(4-fluorophenyl)-1-isopropyl-4-oxo-1,4-dihydropyridazine-3-carboxamide]",24-hour solubility in buffer solutions with different pH values pH6.5,[2],0.0002 mg/mL
same,24-hour solubility in buffer solutions with different pH values pH5.0,[2],0.004 mg/mL
